# US20210353668A1, “CALCIUM COMPOSITION” (PerformaNat GmbH, priority 2018, published 2021)
# Tested on: Ruminal epithelium of sheep
# Assay: Measurement of Ca-flux (45Ca2+ net flux) across ruminal epithelium in the Ussing chamber
# Assay type: cell-based
# Procedure: Measurement of Ca-Flux Across Ruminal Epithelium in the Ussing-Chamber
# Ruminal epithelium of sheep was mounted in a conventional Ussing chamber. Chambers contained 16 ml of serosal or mucosal buffer, which was circulated and gassed by a gas lift system (5% CO2/95% O2).
# In this experiment 24 chambers were divided into three groups. Group 1 (mucosal buffer containing 1.8 mM CaCl2), group 2 (mucosal buffer containing 3.6 mM CaCl2) and group 3 (containing 7.2 mM CaCl2). The same buffer was present on the serosal side of all chambers (Table 1). Each group (1,2,3) was again divided into two parts. One was defined as control group one as EO group. It is noted that the amounts correspond to a normal Ca^2+ concentration in the rumen (1.8 mM) (referred to as Comparative Example A) and to treated rumen corresponding to the administration of about 13 g Ca (3.6 mM) and 26 g Ca (7.2 mM) (referred to as Examples 1 and 2, respectively).
# After an equilibrating time of around 30 minutes ^45Ca^2+ (40 kBq per 16 ml chamber) was added to either to the mucosal or serosal “hot” side.
# Depending on the group 16 μl ethanol (Control) or 16 μl essential oil (EO) were added to the mucosal side of the chamber. The essential oil used is menthol, and the actual menthol concentration obtained is 50 μM.
# After 70 minutes the first sample from the “cold” side was taken, followed by five samples of each 900 μl which were taken in an interval of 30 minutes. The sample volume was replaced by an aliquot of the respective buffer. Radioactivity was measured using a β-counter (LKB Wallace-Perkin-Elmer, Überlingen, Germany).
# Epithelia were paired after sorting for transepithelial conductance (Gt) and the net calcium flux was calculated from the difference between mucosal to serosal flux and serosal to mucosal flux for paired epithelia.
# The net transport of calcium across the isolated ruminal epithelium was calculated by subtracting the calcium secretion (serosal to mucosal transport) from the calcium absorption (mucosal to serosal transport) reflecting the real absorption of calcium from the rumen to the blood side. For statistical analysis linear mixed effect models for repeated measures were calculated using mucosal calcium concentration and the addition of essential oils as fixed effects and animal as random effect (SAS System, method MIXED PROC). The effects of calcium concentration and the addition of essential oils was calculated as well as their interaction. Furthermore, the effect of sampling time was included to the model. Effects were evaluated for the repeated measures of the consecutive flux periods.
compound,measurement,setting,value
CC1CCC(C(C)C)C(O)C1 (stereo not shown) [menthol],calcium flux compared to the control (in words),"all three Ca concentrations (1.8, 3.6, 7.2 mM), menthol present",increased
same,increase of calcium absorption by addition of EO,mucosal Ca 1.8 mM,6.06 nmol/cm^2/h
same,increase of calcium absorption by addition of EO,mucosal Ca 3.6 mM,2.52 nmol/cm^2/h
same,increase of calcium absorption by addition of EO,mucosal Ca 7.2 mM,8.22 nmol/cm^2/h
